{"source": "patent US7723029B2", "about": "“Biochips including ion transport detecting structures and methods of use” (Aviva Biosciences Corporation, priority 2002, dated 2010)", "test_system": "RBL-1 cell", "conditions": "glass chip treated with base then H2O (FIG. 31) and conventional patch glass capillary (FIG. 30), addition of barium chloride", "protocol": "After baking, the glass chips were stored in de-ionized H2O for many hours (ranging from less than 1 hour to over 2 days). […] The whole cell recording on a RBL-1 cell on this chip for a ramping voltage protocol, in which the voltage applied across the cell membrane linearly varied with time from −120 mV to 60 mV at a rate of 120 mV/second, is shown in FIG. 29. […] With or without baking the chips, the glass chips were first treated with HNO3 (6 M) for 4 or 5 hours, then treated with NaOH (5M) for 30-45 minutes, and were then transferred into de-ionized H2O (pH=6-7) for storage/treatment. […] A ramping voltage protocol was used for the recording in FIG. 32, in which the voltage applied across the cell membrane linearly varied with time from −120 mV to 60 mV at a rate of 120 mV/second. […] A ramping voltage protocol was used for the recording in FIG. 33, in which the voltage applied across the cell membrane linearly varied with time from −120 mV to 60 mV at a rate of 120 mV/second. • (4) Laser polishing followed by Acid treatment and then by base treatment.", "data": [{"smiles": "[Ba+2].[Cl-].[Cl-]", "note": "[barium chloride]", "values": [{"measurement": "whole-cell current", "result": "inhibition of the whole-cell current"}]}]}
